{
  "source": "patent US8927724B2",
  "about": "“Isoxazole beta-lactamase inhibitors” (priority 2012, dated 2015)",
  "note": "Structures can show the parent of a compound that is named as a salt.",
  "data": [
    {"test_system": "bacterial strains that express the class D cephalosporinase OXA-15", "assay": "Synergy MIC / standard BLI potentiation MIC assay, strains expressing OXA-15", "format": "cell-based, E. coli", "conditions": "in the presence of a β-lactam; comparator Avibactam (CCC)", "protocol": "(§1) The experimental protocol was performed according to Clinical and Laboratory Standards Institute (CLSI) guidelines with modifications as described below (CLSI guidelines can be derived from the CLSI document M07-A9 published in January 2012: “Methods for Dilution Antimicrobial Susceptibility Tests for Bacteria That Grow Aerobically; Approved Standard-Ninth Edition”).\n(§2) To prepare for MIC testing, frozen glycerol stocks of clinical isolates (Klebsiella pneumoniae, Eschericia coli, Enterobacter spp, Citrobacter spp, or Pseudomonas aeruginosa) were used to streak for isolated colonies on rich, non-selective, tryptic soy agar containing 5% sheep's blood (TSAB). Frozen glycerol stocks of laboratory engineered, isogenic E. coli strains, which contain cloned β-lactamase expressing plasmids were used to streak for isolated colonies on rich, selective LB agar supplemented with 25 μg/mL tetracycline to maintain the plasmid. All strains were incubated at 37° C. for 18-24 hrs.\n(§3) On the day of testing, primary cultures were started by scraping off 5-10 colonies from the TSAB plates containing clinical strains or the tetracycline supplemented LB plates containing engineered strains. The clinical strain material was suspended in ˜5 mL of cation adjusted Mueller Hinton Broth (CAMHB) in 14 mL culture tubes. The engineered strain material was suspended in CAMHB (supplemented with 25 μg/mL tetracycline) in 14 mL culture tubes. All strains were incubated at 37° C. with aeration (200 rpm) for ˜2 hrs until the optical density at 600 nm (OD600) was >0.1.\n(§4) The two compound components of the assay were each diluted in CAMHB and added to the 96-well broth microdilution assay plates. 50 μL of the β-lactam was added to each well of the assay plate in 2-fold dilutions with final concentrations ranging from 128 to 0.13 μg/mL. 25 μL of the BLI compound was added to all wells in the broth microdilution plates at a final concentration of 4 μg/mL. Inoculum cultures were prepared by standardizing the primary cultures to OD600=0.1 and then adding 20 μL of the adjusted primary culture per 1 mL CAMHB for clinical strains or CAMHB (supplemented with tetracycline at 100 μg/mL) for engineered strains, so that the final inoculum density was ˜10^5 colony forming units per milliliter. Diluted inoculum cultures were used to inoculate 25 μl, per well in 96-well broth microdilution assay plates. The final volume of each well was 100 μL and contained a β-lactam at different concentrations, a BLI compound at 4 μg/mL concentration, the bacterial culture at an OD600 of approximately 0.001 and when necessary tetracycline at 25 μg/mL.\n(§5) Plates were incubated for 18-20 hours at 37° C. with aeration (200 rpm). Following incubation, growth was confirmed visually placing plates over a viewing apparatus (stand with a mirror underneath) and then OD600 was measured using a SpectraMax 340PC384 plate reader (Molecular Devices, Sunnyvale, Calif.). Growth was defined as turbidity that could be detected with the naked eye or achieving minimum OD600 of 0.1. MIC values were defined as the lowest concentration producing no visible turbidity.\nThe synergy MIC (sMIC) assay determines the concentration of the BLI required to potentiate the activity of a fixed concentration of a β-lactam antibiotic against β-lactamase producing bacterial strains. […]", "values": [
      {"smiles": "N=C(N)NCC(O)c1cc([C@@H]2CC[C@@H]3CN2C(=O)N3OS(=O)(=O)O)no1", "note": "(single isomer, unassigned) [Compound 611, (2S,5R)-2-(5-((R*)-2-guanidino-1-hydroxyethyl)isoxazol-3-yl)-7-oxo-1,6-diazabicyclo[3.2.1]octan-6-yl hydrogen sulfate]", "activity against bacterial strains that express OXA-15, compared with Avibactam": "more active than Avibactam"},
      {"smiles": "N=C(N)NCc1cc([C@@H]2CC[C@@H]3CN2C(=O)N3OS(=O)(=O)O)no1", "note": "[Compound 603, (2S,5R)-2-(5-(guanidinomethyl)isoxazol-3-yl)-7-oxo-1,6-diazabicyclo[3.2.1]octan-6-yl hydrogen sulfate]", "activity against bacterial strains that express OXA-15, compared with Avibactam": "more active than Avibactam"}
    ]},
    {"test_system": "bacterial strains that express KPC β-lactamases", "assay": "Synergy MIC / standard BLI potentiation MIC assay, strains expressing KPC β-lactamases", "format": "cell-based", "conditions": "at least one KPC strain and/or better spectrum; in the presence of a β-lactam", "protocol": "as §1, §2, §3, §4, §5\nThe synergy MIC (sMIC) assay determines the concentration of the BLI required to potentiate the activity of a fixed concentration of a β-lactam antibiotic against β-lactamase producing bacterial strains. The experimental protocol was performed according to Clinical and Laboratory Standards Institute (CLSI) guidelines with modifications as described below (CLSI guidelines can be derived from the CLSI document M07-A9 published in January 2012: “Methods for Dilution Antimicrobial Susceptibility Tests for Bacteria That Grow Aerobically; Approved Standard-Ninth Edition”). […]", "values": [
      {"smiles": "N=C(N)NCC(O)c1cc([C@@H]2CC[C@@H]3CN2C(=O)N3OS(=O)(=O)O)no1", "note": "(single isomer, unassigned) [Compound 611, (2S,5R)-2-(5-((R*)-2-guanidino-1-hydroxyethyl)isoxazol-3-yl)-7-oxo-1,6-diazabicyclo[3.2.1]octan-6-yl hydrogen sulfate]", "activity and/or spectrum of activity against bacterial strains that express KPC β-lactamases, compared with Avibactam": "more active than Avibactam"},
      {"smiles": "N=C(N)NCC(O)c1cc([C@@H]2CC[C@@H]3CN2C(=O)N3OS(=O)(=O)O)no1", "note": "(single isomer, unassigned) [Compound 612, (2S,5R)-2-(5-((S*)-2-guanidino-1-hydroxyethyl)isoxazol-3-yl)-7-oxo-1,6-diazabicyclo[3.2.1]octan-6-yl hydrogen sulfate]", "activity and/or spectrum of activity against bacterial strains that express KPC β-lactamases, compared with Avibactam": "more active than Avibactam"},
      {"smiles": "NCc1cc([C@@H]2CC[C@@H]3CN2C(=O)N3OS(=O)(=O)O)no1", "note": "[Compound 601, (2S,5R)-2-(5-(aminomethyl)isoxazol-3-yl)-7-oxo-1,6-diazabicyclo[3.2.1]octan-6-yl hydrogen sulfate]", "activity and/or spectrum of activity against bacterial strains that express KPC β-lactamases, compared with Avibactam": "more active than Avibactam"},
      {"smiles": "N=C(N)NCc1cc([C@@H]2CC[C@@H]3CN2C(=O)N3OS(=O)(=O)O)no1", "note": "[Compound 603, (2S,5R)-2-(5-(guanidinomethyl)isoxazol-3-yl)-7-oxo-1,6-diazabicyclo[3.2.1]octan-6-yl hydrogen sulfate]", "activity and/or spectrum of activity against bacterial strains that express KPC β-lactamases, compared with Avibactam": "more active than Avibactam"},
      {"smiles": "NCCNC(=O)c1cc([C@@H]2CC[C@@H]3CN2C(=O)N3OS(=O)(=O)O)no1", "note": "[Compound 605, (2S,5R)-2-(5-((2-aminoethyl)carbamoyl)isoxazol-3-yl)-7-oxo-1,6-diazabicyclo[3.2.1]octan-6-yl hydrogen sulfate]", "activity and/or spectrum of activity against bacterial strains that express KPC β-lactamases, compared with Avibactam": "more active than Avibactam"},
      {"smiles": "N=C(N)N1CCC(c2cc([C@@H]3CC[C@@H]4CN3C(=O)N4OS(=O)(=O)O)no2)CC1", "note": "[Compound 607, (2S,5R)-2-(5-(1-carbamimidoylpiperidin-4-yl)isoxazol-3-yl)-7-oxo-1,6-diazabicyclo[3.2.1]octan-6-yl hydrogen sulfate]", "activity and/or spectrum of activity against bacterial strains that express KPC β-lactamases, compared with Avibactam": "more active than Avibactam"},
      {"smiles": "N=C(N)NCCNC(=O)c1cc([C@@H]2CC[C@@H]3CN2C(=O)N3OS(=O)(=O)O)no1", "note": "[Compound 608, (2S,5R)-2-(5-((2-guanidinoethyl)carbamoyl)isoxazol-3-yl)-7-oxo-1,6-diazabicyclo[3.2.1]octan-6-yl hydrogen sulfate]", "activity and/or spectrum of activity against bacterial strains that express KPC β-lactamases, compared with Avibactam": "more active than Avibactam"},
      {"smiles": "O=C1N2C[C@@H](CC[C@H]2c2cc(CCNC3CCNCC3)on2)N1OS(=O)(=O)O", "note": "[Compound 609, (2S,5R)-7-oxo-2-(5-(2-(piperidin-4-ylamino)ethyl)isoxazol-3-yl)-1,6-diazabicyclo[3.2.1]octan-6-yl hydrogen sulfate]", "activity and/or spectrum of activity against bacterial strains that express KPC β-lactamases, compared with Avibactam": "more active than Avibactam"},
      {"smiles": "N=C(N)N1CCC(NCCc2cc([C@@H]3CC[C@@H]4CN3C(=O)N4OS(=O)(=O)O)no2)CC1", "note": "[Compound 610, (2S,5R)-2-(5-(2-((1-carbamimidoylpiperidin-4-yl)amino)ethyl)isoxazol-3-yl)-7-oxo-1,6-diazabicyclo[3.2.1]octan-6-yl hydrogen sulfate]", "activity and/or spectrum of activity against bacterial strains that express KPC β-lactamases, compared with Avibactam": "more active than Avibactam"},
      {"smiles": "N=C(N)NC1(Cc2cc([C@@H]3CC[C@@H]4CN3C(=O)N4OS(=O)(=O)O)no2)CC1", "note": "[Compound 613, (2S,5R)-2-(5-((1-guanidinocyclopropyl)methyl)isoxazol-3-yl)-7-oxo-1,6-diazabicyclo[3.2.1]octan-6-yl hydrogen sulfate]", "activity and/or spectrum of activity against bacterial strains that express KPC β-lactamases, compared with Avibactam": "more active than Avibactam"},
      {"smiles": "N=C(N)NCCCc1cc([C@@H]2CC[C@@H]3CN2C(=O)N3OS(=O)(=O)O)no1", "note": "[Compound 615, (2S,5R)-2-(5-(3-guanidinopropyl)isoxazol-3-yl)-7-oxo-1,6-diazabicyclo[3.2.1]octan-6-yl hydrogen sulfate]", "activity and/or spectrum of activity against bacterial strains that express KPC β-lactamases, compared with Avibactam": "more active than Avibactam"},
      {"smiles": "N[C@H]1C[C@@H](c2cc([C@@H]3CC[C@@H]4CN3C(=O)N4OS(=O)(=O)O)no2)C1", "note": "[Compound 616, (2S,5R)-2-(5-((1s,3R)-3-aminocyclobutyl)isoxazol-3-yl)-7-oxo-1,6-diazabicyclo[3.2.1]octan-6-yl hydrogen sulfate]", "activity and/or spectrum of activity against bacterial strains that express KPC β-lactamases, compared with Avibactam": "more active than Avibactam"},
      {"smiles": "N=C(N)N[C@H]1C[C@@H](c2cc([C@@H]3CC[C@@H]4CN3C(=O)N4OS(=O)(=O)O)no2)C1", "note": "[Compound 617, (2S,5R)-2-(5-((1s,3R)-3-guanidinocyclobutyl)isoxazol-3-yl)-7-oxo-1,6-diazabicyclo[3.2.1]octan-6-yl hydrogen sulfate]", "activity and/or spectrum of activity against bacterial strains that express KPC β-lactamases, compared with Avibactam": "more active than Avibactam"},
      {"smiles": "NCCNCCc1cc([C@@H]2CC[C@@H]3CN2C(=O)N3OS(=O)(=O)O)no1", "note": "[Compound 620, (2S,5R)-2-(5-(2-((2-aminoethyl)amino)ethyl)isoxazol-3-yl)-7-oxo-1,6-diazabicyclo[3.2.1]octan-6-yl hydrogen sulfate]", "activity and/or spectrum of activity against bacterial strains that express KPC β-lactamases, compared with Avibactam": "more active than Avibactam"},
      {"smiles": "N=C(N)NCCNCCc1cc([C@@H]2CC[C@@H]3CN2C(=O)N3OS(=O)(=O)O)no1", "note": "[Compound 621, (2S,5R)-2-(5-(2-((2-guanidinoethyl)amino)ethyl)isoxazol-3-yl)-7-oxo-1,6-diazabicyclo[3.2.1]octan-6-yl hydrogen sulfate]", "activity and/or spectrum of activity against bacterial strains that express KPC β-lactamases, compared with Avibactam": "more active than Avibactam"},
      {"smiles": "O=C1N2C[C@@H](CC[C@H]2c2cc(CNC3CNC3)on2)N1OS(=O)(=O)O", "note": "[Compound 622, (2S,5R)-2-(5-((azetidin-3-ylamino)methyl)isoxazol-3-yl)-7-oxo-1,6-diazabicyclo[3.2.1]octan-6-yl hydrogen sulfate]", "activity and/or spectrum of activity against bacterial strains that express KPC β-lactamases, compared with Avibactam": "more active than Avibactam"},
      {"smiles": "O=C1N2C[C@@H](CC[C@H]2c2cc(CCNC3CNC3)on2)N1OS(=O)(=O)O", "note": "[Compound 623, (2S,5R)-2-(5-(2-(azetidin-3-ylamino)ethyl)isoxazol-3-yl)-7-oxo-1,6-diazabicyclo[3.2.1]octan-6-yl hydrogen sulfate]", "activity and/or spectrum of activity against bacterial strains that express KPC β-lactamases, compared with Avibactam": "more active than Avibactam"},
      {"smiles": "O=C1N2C[C@@H](CC[C@H]2c2cc(COC3CNC3)on2)N1OS(=O)(=O)O", "note": "[Compound 624, (2S,5R)-2-(5-((azetidin-3-yloxy)methyl)isoxazol-3-yl)-7-oxo-1,6-diazabicyclo[3.2.1]octan-6-yl hydrogen sulfate]", "activity and/or spectrum of activity against bacterial strains that express KPC β-lactamases, compared with Avibactam": "more active than Avibactam"},
      {"smiles": "O=C1N2C[C@@H](CC[C@H]2c2cc(CC3CCNCC3)on2)N1OS(=O)(=O)O", "note": "[Compound 627, (2S,5R)-7-oxo-2-(5-(piperidin-4-ylmethyl)isoxazol-3-yl)-1,6-diazabicyclo[3.2.1]octan-6-yl hydrogen sulfate]", "activity and/or spectrum of activity against bacterial strains that express KPC β-lactamases, compared with Avibactam": "more active than Avibactam"}
    ]}
  ]
}
